# From ChEMBL document CHEMBL1157938, “Cytotoxicity and inhibition of DNA topoisomerase I of polyhydroxylated triterpenoids and triterpenoid glycosides” (Bioorg Med Chem Lett, 2010)
# The source made the active and inactive calls. No cut-off for these calls is given here.
# Key:
# [1] = system: PC-3; assay: Cytotoxicity against human PC3 cells after 48 hrs by WST8 assay; type: functional; conditions: PC-3, 48 h
# [2] = target: DNA topoisomerase 2-alpha (Homo sapiens, UniProt P11388); assay: Inhibition of human DNA topoisomerase 2-mediated relaxation of supercoiled DNA by gel electrophoresis
# DNA topoisomerase 2-alpha, sequence (P11388 whole entry): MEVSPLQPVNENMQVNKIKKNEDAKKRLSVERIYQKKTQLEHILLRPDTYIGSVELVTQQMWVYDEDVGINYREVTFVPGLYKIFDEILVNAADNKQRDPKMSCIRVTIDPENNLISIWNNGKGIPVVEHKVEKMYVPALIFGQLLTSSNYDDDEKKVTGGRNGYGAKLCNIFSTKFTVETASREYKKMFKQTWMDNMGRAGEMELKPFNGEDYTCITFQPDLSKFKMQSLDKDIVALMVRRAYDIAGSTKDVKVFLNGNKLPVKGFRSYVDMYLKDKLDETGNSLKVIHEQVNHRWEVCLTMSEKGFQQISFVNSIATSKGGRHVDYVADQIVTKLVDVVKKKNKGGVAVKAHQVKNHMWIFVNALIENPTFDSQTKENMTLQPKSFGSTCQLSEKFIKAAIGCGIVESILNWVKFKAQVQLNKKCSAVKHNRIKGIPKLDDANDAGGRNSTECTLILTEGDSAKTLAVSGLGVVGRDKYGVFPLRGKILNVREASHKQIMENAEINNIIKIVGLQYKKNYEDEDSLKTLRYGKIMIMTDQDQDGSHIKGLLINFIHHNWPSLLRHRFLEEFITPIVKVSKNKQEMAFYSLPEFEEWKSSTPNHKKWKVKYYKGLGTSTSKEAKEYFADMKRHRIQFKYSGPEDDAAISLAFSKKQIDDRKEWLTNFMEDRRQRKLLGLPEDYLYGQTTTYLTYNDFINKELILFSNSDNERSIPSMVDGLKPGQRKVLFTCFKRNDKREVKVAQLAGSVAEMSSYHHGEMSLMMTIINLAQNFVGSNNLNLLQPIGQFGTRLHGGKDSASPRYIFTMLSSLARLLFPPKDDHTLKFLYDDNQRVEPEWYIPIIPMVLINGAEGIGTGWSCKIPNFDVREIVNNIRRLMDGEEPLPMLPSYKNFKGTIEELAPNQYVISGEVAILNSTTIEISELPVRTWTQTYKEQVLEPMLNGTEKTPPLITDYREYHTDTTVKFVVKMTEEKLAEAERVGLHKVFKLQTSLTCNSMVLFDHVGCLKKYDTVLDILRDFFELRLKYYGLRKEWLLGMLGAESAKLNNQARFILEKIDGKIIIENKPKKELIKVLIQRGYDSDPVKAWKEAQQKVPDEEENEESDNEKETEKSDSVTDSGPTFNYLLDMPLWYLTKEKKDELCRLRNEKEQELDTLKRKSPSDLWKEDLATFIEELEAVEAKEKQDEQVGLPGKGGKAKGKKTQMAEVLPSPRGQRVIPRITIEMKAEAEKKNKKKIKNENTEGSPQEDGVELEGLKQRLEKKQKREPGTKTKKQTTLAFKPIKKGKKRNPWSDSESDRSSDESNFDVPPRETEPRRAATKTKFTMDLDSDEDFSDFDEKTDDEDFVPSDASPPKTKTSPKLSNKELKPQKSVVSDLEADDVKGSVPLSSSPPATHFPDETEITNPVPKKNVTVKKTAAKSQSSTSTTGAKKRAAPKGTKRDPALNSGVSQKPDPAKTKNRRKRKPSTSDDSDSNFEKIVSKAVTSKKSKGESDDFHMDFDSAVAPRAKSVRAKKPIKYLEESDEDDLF
# [3] = system: HL-60; assay: Cytotoxicity against human HL60 cells after 48 hrs by WST8 assay; type: functional; conditions: HL-60, 48 h
# [4] = Cytotoxicity against human MRC5 cells after 48 hrs by WST8 assay; type: cell-based
# [5] = target: T1, DNA topoisomerase 1 (Homo sapiens, UniProt P11387); assay: Inhibition of human DNA topoisomerase 1-mediated relaxation of supercoiled DNA by gel electrophoresis
# T1 sequence (P11387 whole entry): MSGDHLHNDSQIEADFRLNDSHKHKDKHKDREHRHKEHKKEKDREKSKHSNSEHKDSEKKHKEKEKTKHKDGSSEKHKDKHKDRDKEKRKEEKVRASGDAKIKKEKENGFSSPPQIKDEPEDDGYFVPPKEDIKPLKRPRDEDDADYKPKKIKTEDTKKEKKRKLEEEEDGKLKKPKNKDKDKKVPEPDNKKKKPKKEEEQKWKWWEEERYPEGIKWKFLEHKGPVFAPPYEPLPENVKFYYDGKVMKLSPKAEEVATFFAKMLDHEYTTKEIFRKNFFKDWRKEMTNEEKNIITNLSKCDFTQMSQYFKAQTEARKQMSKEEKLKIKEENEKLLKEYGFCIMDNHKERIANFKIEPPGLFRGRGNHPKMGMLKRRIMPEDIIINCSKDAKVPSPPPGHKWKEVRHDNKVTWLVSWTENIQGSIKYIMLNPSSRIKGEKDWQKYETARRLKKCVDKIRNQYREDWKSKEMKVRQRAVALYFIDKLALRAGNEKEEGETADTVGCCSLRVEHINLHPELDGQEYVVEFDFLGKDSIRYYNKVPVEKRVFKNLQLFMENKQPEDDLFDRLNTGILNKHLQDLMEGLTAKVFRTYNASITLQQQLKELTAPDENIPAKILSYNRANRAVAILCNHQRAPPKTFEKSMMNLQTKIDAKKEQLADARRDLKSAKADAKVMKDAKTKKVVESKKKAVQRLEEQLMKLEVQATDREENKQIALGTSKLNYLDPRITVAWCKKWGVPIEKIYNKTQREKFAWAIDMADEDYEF
# [6] = system: PANC-1; assay: Cytotoxicity against human PANC1 cells after 48 hrs by WST8 assay; type: functional; conditions: PANC-1, 48 h
# [7] = system: A549; assay: Cytotoxicity against human A549 cells after 48 hrs by WST8 assay; type: functional; conditions: A549, 48 h
# [8] = system: HL-60; assay: Cytotoxicity against human HL60 cells at 25 uM after 48 hrs by WST8 assay; type: functional, cell-based
# [9] = system: MRC5; assay: Cytotoxicity against human MRC5 cells at 25 uM after 48 hrs by WST8 assay; type: cell-based; conditions: mrc5, 48 h
# [10] = system: A549; assay: Cytotoxicity against human A549 cells at 25 uM after 48 hrs by WST8 assay; type: functional, cell-based
# [11] = system: PANC-1; assay: Cytotoxicity against human PANC1 cells at 25 uM after 48 hrs by WST8 assay; type: functional, cell-based
# [12] = system: PC-3; assay: Cytotoxicity against human PC3 cells at 25 uM after 48 hrs by WST8 assay; type: functional, cell-based
SMILES,GI50 [1] [µM],IC50 [2] [µM],GI50 [3] [µM],GI50 at 48 h [4] [µM],IC50 [5] [µM],GI50 [6] [µM],GI50 [7] [µM],growth inhibition (GI) [8],growth inhibition (GI) [9],growth inhibition (GI) [10],growth inhibition (GI) [11],growth inhibition (GI) [12]
C/C=C(/C)C(=O)O[C@H]1[C@H](OC(=O)C(C)CC)[C@]2(CO)[C@H](O)C[C@]3(C)C(=CC[C@@H]4[C@@]5(C)CC[C@H](O)C(C)(C)[C@@H]5CC[C@]43C)[C@@H]2CC1(C)C (some centres not stated),4.11,> 250,4.6,3.67,> 250,9.6,1.7,–,–,–,–,–
C/C=C(/C)C(=O)O[C@H]1[C@H](OC(=O)C(C)C)[C@]2(CO)[C@H](O)C[C@]3(C)C(=CC[C@@H]4[C@@]5(C)CC[C@H](O)[C@](C)(CO)[C@@H]5CC[C@]43C)[C@@H]2CC1(C)C,2.34,> 250,2.53,2.71,> 250,8,3.81,–,–,–,–,–
C/C=C(/C)C(=O)O[C@H]1[C@H](O)[C@]2(CO)[C@H](O)C[C@]3(C)C(=CC[C@@H]4[C@@]5(C)CC[C@H](O)[C@](C)(CO)[C@@H]5CC[C@]43C)[C@@H]2CC1(C)C,2.23,> 250,–,18.1,> 250,11.9,2.45,inactive,–,–,–,–
C[C@H]1[C@H](C)CC[C@]2(C)CC[C@]3(C)C(=CC[C@@H]4[C@@]5(C)CC[C@H](O)C(C)(C)[C@@H]5CC[C@]43C)[C@H]12,7.66,> 250,–,–,> 250,12.8,10.5,inactive,–,–,–,–
C/C=C(\C)C(=O)O[C@H]1[C@H](OC(C)=O)[C@]2(CO)[C@H](O)[C@H](O)[C@]3(C)C(=CC[C@@H]4[C@@]5(C)CC[C@H](O[C@@H]6O[C@H](C(=O)O)[C@@H](O)[C@H](O[C@@H]7O[C@@H](CO)[C@H](O)[C@H]7O)[C@H]6O[C@@H]6O[C@H](CO)[C@H](O)[C@H](O)[C@H]6O)C(C)(C)[C@@H]5CC[C@]43C)[C@@H]2CC1(C)C [AESCULIOSIDE IIF],–,> 250,–,–,> 250,–,–,inactive,Not Active,inactive,inactive,inactive
C/C=C(/C)C(=O)O[C@H]1[C@H](OC(C)=O)[C@]2(CO)[C@H](O)[C@H](O)[C@]3(C)C(=CC[C@@H]4[C@@]5(C)CC[C@H](O[C@@H]6O[C@H](C(=O)O)[C@@H](O)[C@H](O[C@@H]7O[C@@H](CO)[C@H](O)[C@H]7O)[C@H]6O[C@@H]6O[C@H](CO)[C@H](O)[C@H](O)[C@H]6O)C(C)(C)[C@@H]5CC[C@]43C)[C@@H]2CC1(C)C [AESCULIOSIDE IIG],–,> 250,–,–,> 250,–,–,inactive,Not Active,inactive,inactive,inactive
C/C=C(\C)C(=O)O[C@H]1[C@H](OC(C)=O)[C@]2(CO)[C@H](O)C[C@]3(C)C(=CC[C@@H]4[C@@]5(C)CC[C@H](O[C@@H]6O[C@H](C(=O)O)[C@@H](O)[C@H](O[C@@H]7O[C@@H](CO)[C@H](O)[C@H]7O)[C@H]6O[C@@H]6O[C@H](CO)[C@@H](O)[C@H](O)[C@H]6O)[C@](C)(CO)[C@@H]5CC[C@]43C)[C@@H]2CC1(C)C [AESCULIOSIDE IIH],–,–,–,–,–,–,–,inactive,Not Active,inactive,inactive,inactive
C/C=C(\C)C(=O)O[C@H]1[C@H](OC(C)=O)[C@]2(CO)[C@H](O)C[C@]3(C)C(=CC[C@@H]4[C@@]5(C)CC[C@H](O[C@@H]6O[C@H](C(=O)O)[C@@H](O)[C@H](O[C@@H]7O[C@@H](CO)[C@H](O)[C@H]7O)[C@H]6O[C@@H]6O[C@H](CO)[C@H](O)[C@H](O)[C@H]6O)C(C)(C)[C@@H]5CC[C@]43C)[C@@H]2CC1(C)C [AESCULIOSIDE IIJ],13.8,> 250,–,17.3,> 250,21.9,21.8,inactive,–,–,–,–
CC1(C)C[C@H]2C3=CC[C@@H]4[C@@]5(C)CC[C@H](O)C(C)(C)[C@@H]5CC[C@@]4(C)[C@]3(C)C[C@@H](O)[C@@]2(CO)[C@@H](O)[C@@H]1O [BARRINGTOGENOL C],–,–,–,–,–,–,–,inactive,Not Active,inactive,inactive,inactive
CC1(C)CC[C@]2(C(=O)O[C@@H]3O[C@H](CO)[C@@H](O)[C@H](O)[C@H]3O)CC[C@]3(C)C(=CC[C@@H]4[C@@]5(C)CC[C@H](O[C@@H]6O[C@H](C(=O)O)[C@@H](O)[C@H](O)[C@H]6O)C(C)(C)[C@@H]5CC[C@]43C)[C@@H]2C1 [CHIKUSETSUSAPONIN IVA],–,–,–,–,–,–,–,inactive,Not Active,inactive,inactive,inactive
C[C@@H]1[C@@H](O)[C@H](O)[C@@H](O[C@H]2CC(C)(C)C[C@H]3C4=CC[C@@H]5[C@@]6(C)CC[C@H](O[C@@H]7O[C@H](CO)[C@@H](O)[C@H](O)[C@H]7O[C@@H]7O[C@H](CO)[C@@H](O)[C@H](O)[C@H]7O[C@@H]7O[C@H](CO)[C@@H](O)[C@H](O)[C@H]7O)C(C)(C)[C@@H]6CC[C@@]5(C)[C@]4(C)C[C@@H](O)[C@@]23CO)O[C@H]1CO [ERYNGIOSIDE A],–,–,–,–,–,–,–,inactive,Not Active,inactive,inactive,inactive
C[C@@H]1[C@@H](O)[C@H](O)[C@@H](O[C@H]2CC(C)(C)C[C@H]3C4=CC[C@@H]5[C@@]6(C)CC[C@H](O[C@@H]7O[C@H](CO)[C@@H](O)[C@H](O)[C@H]7O[C@@H]7O[C@H](CO)[C@@H](O)[C@H](O)[C@H]7O[C@@H]7O[C@H](CO)[C@H](O)[C@H](O)[C@H]7O)C(C)(C)[C@@H]6CC[C@@]5(C)[C@]4(C)C[C@@H](O)[C@@]23CO)O[C@H]1CO [ERYNGIOSIDE B],–,–,–,–,–,–,–,inactive,Not Active,inactive,inactive,inactive
C[C@@H]1[C@@H](O)[C@H](O)[C@@H](O[C@H]2CC(C)(C)C[C@H]3C4=CC[C@@H]5[C@@]6(C)CC[C@H](O[C@@H]7O[C@H](CO)[C@@H](O)[C@H](O)[C@H]7O[C@@H]7O[C@H](CO)[C@@H](O)[C@H](O)[C@H]7O[C@@H]7O[C@H](CO)[C@@H](O)[C@H](O)[C@H]7O)C(C)(C)[C@@H]6CC[C@@]5(C)[C@]4(C)CC(=O)[C@@]23CO)O[C@H]1CO [ERYNGIOSIDE C],–,–,–,–,–,–,–,inactive,Not Active,inactive,inactive,inactive
C/C=C(/C)C(=O)O[C@H]1[C@H](O)C(C)(C)C[C@H]2C3=CC[C@@H]4[C@@]5(C)CC[C@H](O[C@@H]6O[C@H](C(=O)O)[C@@H](O)[C@H](O[C@@H]7OC[C@@H](O)[C@H](O)[C@H]7O)[C@H]6O[C@@H]6O[C@H](CO)[C@@H](O)[C@H](O)[C@H]6O)C(C)(C)[C@@H]5CC[C@@]4(C)[C@]3(C)[C@@H](O)[C@@H](O)[C@]21CO [ERYNGIOSIDE E],–,> 250,–,–,> 250,–,–,inactive,Not Active,inactive,inactive,inactive
C/C=C(/C)C(=O)O[C@H]1[C@H](O)C(C)(C)C[C@H]2C3=CC[C@@H]4[C@@]5(C)CC[C@H](O[C@@H]6O[C@H](C(=O)O)[C@@H](O)[C@H](O[C@@H]7OC[C@@H](O)[C@H](O)[C@H]7O)[C@H]6O[C@@H]6O[C@H](CO)[C@@H](O)[C@H](O)[C@H]6O)C(C)(C)[C@@H]5CC[C@@]4(C)[C@]3(C)C[C@@H](O)[C@]21CO [ERYNGIOSIDE F],–,> 250,–,–,> 250,–,–,inactive,Not Active,inactive,inactive,inactive
